What is called IC50 is the concentration that gives 50% inhibition.

Here are results for one molecule from ChEMBL document CHEMBL5316282, “Small-Molecule Cyanamide Pan-TEAD·YAP1 Covalent Antagonists” (J Med Chem, 2023).

Assay [1] concerns the target Transcriptional enhancer factor TEF-1 (Homo sapiens, UniProt P28347). The assay can be described thus: Displacement of FAM- labeled YAP1 peptide (60 to 99 residues) from human TEAD1 (209 to 426 residues) expressed in Escherichia coli BL21 (DE3) cells incubated for 24 hrs by fluorescence polarization-based competitive binding assay. The conditions noted are these: read-out: IC50. A general note: Polarisation of emitted light reports the rotation of a fluorescent probe.

The target of assay [2] is T1, Transcriptional enhancer factor TEF-4 (Homo sapiens, UniProt Q15562). The assay can be described thus: Displacement of FAM- labeled YAP1 peptide (60 to 99 residues) from human TEAD2 (217 to 447 residues) expressed in Escherichia coli BL21 (DE3) cells assessed as maximum inhibition at 0.2 to 100 uM incubated for 24 hrs by fluorescence polarization-based competitive binding assay relative to control. The conditions noted are these: dose 0.2-100 µM.
T1 sequence (Q15562 whole entry, the tested form may be a part): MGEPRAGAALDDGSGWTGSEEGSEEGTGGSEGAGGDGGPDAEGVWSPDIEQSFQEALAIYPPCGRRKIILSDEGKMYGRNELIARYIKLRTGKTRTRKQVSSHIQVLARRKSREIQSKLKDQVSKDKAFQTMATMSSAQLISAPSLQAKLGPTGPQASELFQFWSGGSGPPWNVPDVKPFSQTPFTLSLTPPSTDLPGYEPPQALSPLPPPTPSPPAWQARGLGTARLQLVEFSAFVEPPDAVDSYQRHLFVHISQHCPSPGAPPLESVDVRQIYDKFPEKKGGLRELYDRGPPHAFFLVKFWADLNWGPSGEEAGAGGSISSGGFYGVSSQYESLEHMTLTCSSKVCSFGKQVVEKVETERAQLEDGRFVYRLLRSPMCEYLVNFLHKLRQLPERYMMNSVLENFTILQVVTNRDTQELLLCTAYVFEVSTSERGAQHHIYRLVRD

The target of assay [3] is Transcriptional enhancer factor TEF-3 (Homo sapiens, UniProt Q15561). The assay can be described thus: Inhibition of TEAD4 (unknown origin) transfected in human HEK293 cells co-transfected with renilla plasmid assessed as maximum inhibition of transcriptional activity at 0.01 to 100 uM incubated for 24 hrs by dual Glo-luciferase reporter assay relative to control. Type of assay: cell-based. The conditions noted are these: dose 0.01-100 µM.
Chain of Transcriptional enhancer factor TEF-3 (Q15561 whole entry): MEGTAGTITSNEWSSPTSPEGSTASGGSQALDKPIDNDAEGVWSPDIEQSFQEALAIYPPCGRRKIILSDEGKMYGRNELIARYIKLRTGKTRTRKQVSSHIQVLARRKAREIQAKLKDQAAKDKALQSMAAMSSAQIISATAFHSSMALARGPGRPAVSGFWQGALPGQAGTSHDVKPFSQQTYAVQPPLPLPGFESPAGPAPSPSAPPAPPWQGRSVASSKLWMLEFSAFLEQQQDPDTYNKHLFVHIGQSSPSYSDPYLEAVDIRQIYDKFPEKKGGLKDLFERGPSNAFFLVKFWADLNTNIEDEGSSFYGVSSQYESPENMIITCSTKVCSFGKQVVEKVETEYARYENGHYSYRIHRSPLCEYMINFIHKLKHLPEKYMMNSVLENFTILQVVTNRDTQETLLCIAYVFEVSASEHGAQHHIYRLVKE

Assay [4] concerns the target T1, Transcriptional enhancer factor TEF-4. The assay can be described thus: Inhibition of TEAD2 (unknown origin) transfected in human HEK293 cells co-transfected with renilla plasmid assessed as inhibition of transcriptional activity incubated for 24 hrs by dual Glo-luciferase reporter assay. In kind it is cell-based. (In general: A reporter such as luciferase makes a cellular process visible.)

Assay [5] deals with MDA-MB-468. The assay can be described thus: Antiproliferative activity against human MDA-MB-468 cells assessed as reduction in cell viability incubated for 3 days by MTS assay. Type of assay: functional, cell-based. For orientation: Tetrazolium assays rely on reduction of a dye to a coloured formazan, in cell work by metabolically active cells.
The target in assay [6] is Transcriptional coactivator YAP1/Transcriptional enhancer factor TEF-1 (Homo sapiens) (UniProt P46937+P28347). The assay can be described thus: Inhibition of NanoLuc-tagged TEAD1 (unknown origin)-Halo-Tagged YAP1 (unknown origin) protein-protein interaction transfected in HEK293 cells using furimazine as substrate at 1.1 to 30 uM incubated for 24 hrs by NanoBRET binding assay. In kind it is cell-based. The conditions noted are these: dose 1.1-30 µM.
Chain of Transcriptional coactivator YAP1/Transcriptional enhancer factor TEF-1 (Homo sapiens) (P28347 whole entry, looked up): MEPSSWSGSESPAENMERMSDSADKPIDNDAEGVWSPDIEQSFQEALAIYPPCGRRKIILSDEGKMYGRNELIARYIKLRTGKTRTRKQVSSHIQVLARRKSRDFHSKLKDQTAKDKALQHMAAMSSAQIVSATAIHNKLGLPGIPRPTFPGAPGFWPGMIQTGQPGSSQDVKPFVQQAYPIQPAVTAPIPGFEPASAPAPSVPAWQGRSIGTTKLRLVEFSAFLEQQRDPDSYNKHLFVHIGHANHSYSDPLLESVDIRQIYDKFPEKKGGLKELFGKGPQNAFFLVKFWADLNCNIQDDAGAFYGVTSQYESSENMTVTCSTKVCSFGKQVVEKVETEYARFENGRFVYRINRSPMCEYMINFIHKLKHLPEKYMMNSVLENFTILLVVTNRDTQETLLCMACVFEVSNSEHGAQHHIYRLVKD
Chain of Transcriptional coactivator YAP1/Transcriptional enhancer factor TEF-1 (Homo sapiens) (P46937 whole entry, looked up): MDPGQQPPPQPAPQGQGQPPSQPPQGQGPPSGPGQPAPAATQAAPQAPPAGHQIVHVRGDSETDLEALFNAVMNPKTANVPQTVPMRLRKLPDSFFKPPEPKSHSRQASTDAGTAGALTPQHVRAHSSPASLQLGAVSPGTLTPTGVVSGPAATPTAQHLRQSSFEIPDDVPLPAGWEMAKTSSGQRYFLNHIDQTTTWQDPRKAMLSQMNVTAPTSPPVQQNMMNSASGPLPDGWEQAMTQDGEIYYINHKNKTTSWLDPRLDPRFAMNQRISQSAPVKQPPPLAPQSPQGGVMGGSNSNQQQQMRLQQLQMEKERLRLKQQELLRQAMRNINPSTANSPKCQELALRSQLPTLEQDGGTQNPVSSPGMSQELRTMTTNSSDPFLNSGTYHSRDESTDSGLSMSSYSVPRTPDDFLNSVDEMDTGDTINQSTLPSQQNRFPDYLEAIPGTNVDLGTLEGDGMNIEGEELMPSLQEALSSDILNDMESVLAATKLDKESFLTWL

Assay [7] deals with YAP1-TEAD4 (Homo sapiens) (UniProt P46937+Q15561). The assay can be described thus: Inhibition of myc-tagged TEAD4 (unknown origin)-Flag-Tagged YAP1 (unknown origin) protein-protein interaction transfected in HEK293 cells using furimazine as substrate at 1.1 to 11 uM incubated for 24 hrs by pull-down coimmunoprecipitation assay. In kind it is cell-based. The conditions noted are these: dose 1.1-11 µM.

Assay [8] can be described thus: Antiproliferative activity against human 90-8 cells assessed as reduction in cell viability incubated for 3 days by MTS assay. In kind it is functional, cell-based. The conditions noted are these: 90-8, 72 h.
In another assay the test system is SAOS-2. The assay can be described thus: Antiproliferative activity against human SAOS-2 cells assessed as reduction in cell viability incubated for 3 days by MTS assay. Type of assay: functional, cell-based. The conditions noted are these: SAOS-2, 72 h.
The subject of assay [9] is MDA-MB-468. The assay can be described thus: Antiproliferative activity against human MDA-MB-468 cells assessed as maximum inhibition of cell viability incubated for 3 days by MTS assay relative to control. Type of assay: functional, cell-based. The conditions noted are these: time 3.0 day.

Activity calls are given as the source filed them. The rule behind the calls is not given here.

Chain of Transcriptional enhancer factor TEF-1 (P28347 whole entry, the tested form may be a part): as the sequence (P28347 whole entry, looked up) above

As to `N#CN1Cc2cccc(Nc3cccc(C(F)(F)F)c3)c2C1`, the IC50 in assay [1] is 900 nM; in assay [4], 2700 nM; with MDA-MB-468 [5], “Not Active”; in assay [8], 3500 nM; in the assay with SAOS-2, 100 nM. The Imax in [2] was determined as 34%; in assay [3] it was 46.6%. Moreover, in [6], the inhibition result is “Active”. Besides, the inhibition entry in assay [7] was “Dose-Dependent Effect”. Besides, the Imax result in the assay with MDA-MB-468 [9] is “inactive”.
